#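 Tested at 5 concentrations; 48 h exposure; 96-well plates; endpoints linearly interpolated, else capped at highest concentration. GI50 is the concentration that inhibits growth by half. TGI: concentration producing complete growth inhibition.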
# Tests used:
# Test in all cases: inhibition of tumour cell growth, NCI panel, 48 h
# ACHN renal = test system: ACHN renal
# HOP-62 NSCLC = test system: HOP-62 NSCLC
# NCI-H522 lung = test system: NCI-H522 lung
# OVCAR-3 ovarian = test system: OVCAR-3 ovarian
# OVCAR-5 ovarian = test system: OVCAR-5 ovarian
# SK-OV-3 ovarian = test system: SK-OV-3 ovarian
# SN12C renal = test system: SN12C renal
# SR leukemia = test system: SR leukemia
# SW-620 colon = test system: SW-620 colon
# PC-3 prostate = test system: PC-3 prostate
compound,measurement,setting,value
NC1=NN(c2ccccc2)C(=O)C1C(=O)C(=O)Nc1ccc(Cl)c(Cl)c1 (stereo not given),TGI,ACHN renal,> 100 µM
same,TGI,HOP-62 NSCLC,> 100 µM
same,TGI,NCI-H522 lung,> 100 µM
same,TGI,OVCAR-3 ovarian,> 100 µM
same,TGI,OVCAR-5 ovarian,> 100 µM
same,TGI,SK-OV-3 ovarian,> 100 µM
same,TGI,SN12C renal,> 100 µM
same,TGI,SR leukemia,> 100 µM
same,TGI,SW-620 colon,> 100 µM
Cc1cc(=O)n(-c2cc3cccccc-3n2)[nH]1,TGI,ACHN renal,50.3 µM
same,TGI,HOP-62 NSCLC,> 100 µM
same,TGI,NCI-H522 lung,6.86 µM
same,TGI,OVCAR-3 ovarian,8.23 µM
same,TGI,OVCAR-5 ovarian,> 100 µM
same,TGI,SK-OV-3 ovarian,47 µM
same,TGI,SN12C renal,62.3 µM
same,TGI,SW-620 colon,13 µM
Cc1cccc(C)c1N1C(=O)C(=O)C(c2nc3ccccc3s2)/C(=N\N)C1=O (stereo not given),TGI,ACHN renal,> 100 µM
same,TGI,HOP-62 NSCLC,> 100 µM
same,TGI,NCI-H522 lung,> 100 µM
same,TGI,OVCAR-3 ovarian,> 100 µM
same,TGI,OVCAR-5 ovarian,> 100 µM
same,TGI,SK-OV-3 ovarian,> 100 µM
same,TGI,SN12C renal,> 100 µM
same,TGI,SW-620 colon,> 100 µM
Cc1cn(Cc2ccc(C34CC5CC(CC(C5)C3)C4)c(O)c2)c(=O)[nH]c1=O,GI50,ACHN renal,10.8 µM
same,TGI,ACHN renal,24.3 µM
same,GI50,HOP-62 NSCLC,12.9 µM
same,TGI,HOP-62 NSCLC,25.6 µM
same,GI50,NCI-H522 lung,8.04 µM
same,TGI,NCI-H522 lung,24.2 µM
same,GI50,OVCAR-3 ovarian,4.04 µM
same,TGI,OVCAR-3 ovarian,16.3 µM
same,GI50,OVCAR-5 ovarian,16.1 µM
same,TGI,OVCAR-5 ovarian,29.8 µM
same,GI50,SK-OV-3 ovarian,19.2 µM
same,TGI,SK-OV-3 ovarian,44.3 µM
same,GI50,SN12C renal,12.3 µM
same,TGI,SN12C renal,25.4 µM
same,GI50,SR leukemia,3.16 µM
same,TGI,SR leukemia,13.5 µM
same,GI50,SW-620 colon,8.59 µM
same,TGI,SW-620 colon,20.9 µM
O=C1c2ccccc2-c2c1c1ccccc1c(=O)n2CCCNCCn1c2c(c3ccccc3c1=O)C(=O)c1ccccc1-2,GI50,ACHN renal,12.3 µM
same,TGI,ACHN renal,24.8 µM
same,GI50,HOP-62 NSCLC,9.69 µM
same,TGI,HOP-62 NSCLC,25.3 µM
same,GI50,NCI-H522 lung,14.6 µM
same,TGI,NCI-H522 lung,48.1 µM
same,GI50,OVCAR-3 ovarian,8.82 µM
same,TGI,OVCAR-3 ovarian,21.1 µM
same,GI50,OVCAR-5 ovarian,14.9 µM
same,TGI,OVCAR-5 ovarian,28.1 µM
same,GI50,PC-3 prostate,2.43 µM
same,TGI,PC-3 prostate,10.5 µM
same,GI50,SK-OV-3 ovarian,19.2 µM
same,TGI,SK-OV-3 ovarian,> 100 µM
same,GI50,SN12C renal,10.9 µM
same,TGI,SN12C renal,22.9 µM
same,GI50,SW-620 colon,2.23 µM
same,TGI,SW-620 colon,> 100 µM
O=C1O/C(=C/c2ccccc2)C(c2ccccc2)=C1O,TGI,ACHN renal,> 100 µM
same,TGI,HOP-62 NSCLC,94.3 µM
same,TGI,NCI-H522 lung,> 100 µM
same,TGI,OVCAR-3 ovarian,44.1 µM
same,TGI,OVCAR-5 ovarian,> 100 µM
same,TGI,PC-3 prostate,> 100 µM
same,TGI,SK-OV-3 ovarian,> 100 µM
same,TGI,SN12C renal,> 100 µM
same,TGI,SW-620 colon,> 100 µM
CCOc1ccccc1N=Nc1c(-c2ccccc2)nn(C(=O)CC(=O)Nc2cccc(C)c2)c1-c1ccccc1,TGI,ACHN renal,> 100 µM
same,TGI,HOP-62 NSCLC,> 100 µM
same,TGI,NCI-H522 lung,> 100 µM
same,TGI,OVCAR-3 ovarian,> 100 µM
same,TGI,OVCAR-5 ovarian,> 100 µM
same,TGI,SK-OV-3 ovarian,> 100 µM
same,TGI,SN12C renal,> 100 µM
same,TGI,SR leukemia,> 100 µM
same,TGI,SW-620 colon,> 100 µM
O=C(Nc1ccc(Cl)cc1Cl)OC(Cn1cncn1)c1ccc(Cl)cc1Cl (stereo not given),TGI,ACHN renal,29 µM
same,TGI,HOP-62 NSCLC,34.5 µM
same,TGI,NCI-H522 lung,34.8 µM
same,TGI,OVCAR-3 ovarian,29.3 µM
same,TGI,SK-OV-3 ovarian,34.7 µM
same,TGI,SN12C renal,30.7 µM
same,TGI,SR leukemia,> 100 µM
same,TGI,SW-620 colon,30.4 µM
COC(=O)C1=CC2C=CC(C1C(=O)OC)C1C(C(=O)OC)=C(C(=O)OC)C(C(=O)OC)=C(C(=O)OC)C21OC (stereo not given),TGI,ACHN renal,> 100 µM
same,TGI,HOP-62 NSCLC,> 100 µM
same,TGI,NCI-H522 lung,> 100 µM
same,TGI,OVCAR-3 ovarian,> 100 µM
same,TGI,OVCAR-5 ovarian,> 100 µM
same,TGI,SK-OV-3 ovarian,> 100 µM
same,TGI,SN12C renal,> 100 µM
same,TGI,SR leukemia,> 100 µM
same,TGI,SW-620 colon,> 100 µM
COc1ccc(OC)c(/C=N/N=C(\N)NO)c1,TGI,ACHN renal,81.4 µM
same,TGI,HOP-62 NSCLC,> 100 µM
same,TGI,NCI-H522 lung,35 µM
same,TGI,OVCAR-3 ovarian,> 100 µM
same,TGI,OVCAR-5 ovarian,> 100 µM
same,TGI,SK-OV-3 ovarian,> 100 µM
same,TGI,SN12C renal,> 100 µM
same,TGI,SR leukemia,> 100 µM
same,TGI,SW-620 colon,> 100 µM
CN(/N=C\c1ccnc2ccccc12)c1ccc([N+](=O)[O-])cc1,TGI,ACHN renal,> 100 µM
same,TGI,HOP-62 NSCLC,> 100 µM
same,TGI,OVCAR-3 ovarian,> 100 µM
same,TGI,OVCAR-5 ovarian,> 100 µM
same,TGI,SK-OV-3 ovarian,> 100 µM
same,TGI,SN12C renal,> 100 µM
same,TGI,SW-620 colon,> 100 µM
CC(=O)N1N=C(c2ccc(Nc3nc(Nc4ccc(F)cc4)nc(Nc4ccc(F)cc4)n3)cc2)CC1c1ccc(N(C)C)cc1 (stereo not given),GI50,ACHN renal,6.15 µM
same,TGI,ACHN renal,18.7 µM
same,GI50,HOP-62 NSCLC,5.98 µM
same,TGI,HOP-62 NSCLC,26 µM
same,GI50,NCI-H522 lung,4.81 µM
same,TGI,NCI-H522 lung,30 µM
same,GI50,OVCAR-3 ovarian,5.23 µM
same,TGI,OVCAR-3 ovarian,20.3 µM
same,GI50,OVCAR-5 ovarian,29.5 µM
same,TGI,OVCAR-5 ovarian,> 100 µM
same,GI50,PC-3 prostate,1.6 µM
same,TGI,PC-3 prostate,6.97 µM
same,GI50,SK-OV-3 ovarian,15.5 µM
same,TGI,SK-OV-3 ovarian,53.7 µM
same,GI50,SN12C renal,6.3 µM
same,TGI,SN12C renal,> 100 µM
same,GI50,SW-620 colon,3.8 µM
same,TGI,SW-620 colon,18.8 µM
COC(=O)C1C(=O)O[C@@H](c2cc(OC)c(OC)cc2OC)C1C(=O)OC (mixture of isomers),TGI,ACHN renal,> 100 µM
same,TGI,HOP-62 NSCLC,> 100 µM
same,TGI,NCI-H522 lung,> 100 µM
same,TGI,OVCAR-3 ovarian,> 100 µM
same,TGI,OVCAR-5 ovarian,> 100 µM
same,TGI,SK-OV-3 ovarian,> 100 µM
same,TGI,SN12C renal,> 100 µM
same,TGI,SR leukemia,> 100 µM
same,TGI,SW-620 colon,> 100 µM
COC1(OC)C2(Cl)C(Cl)=C(Cl)C1(Cl)C1C2C2CC1(C(=O)O)c1ccccc12 (stereo not given),TGI,ACHN renal,> 100 µM
same,TGI,HOP-62 NSCLC,62.8 µM
same,TGI,OVCAR-3 ovarian,33.4 µM
same,TGI,SK-OV-3 ovarian,91.3 µM
same,TGI,SN12C renal,40.9 µM
same,TGI,SR leukemia,42.2 µM
same,TGI,SW-620 colon,54.3 µM
COC(=O)[C@@H]1Cc2c([nH]c3ccccc23)[C@H](c2ccccc2)N1,TGI,ACHN renal,> 100 µM
same,TGI,NCI-H522 lung,53.1 µM
same,TGI,OVCAR-3 ovarian,98.7 µM
same,TGI,OVCAR-5 ovarian,> 100 µM
same,TGI,SK-OV-3 ovarian,89.7 µM
same,TGI,SN12C renal,81.5 µM
same,TGI,SR leukemia,> 100 µM
same,TGI,SW-620 colon,> 100 µM
CNS(=O)(=O)NNS(=O)(=O)c1ccc(OC)cc1,TGI,ACHN renal,> 100 µM
same,TGI,HOP-62 NSCLC,> 100 µM
same,TGI,NCI-H522 lung,> 100 µM
same,TGI,OVCAR-3 ovarian,> 100 µM
same,TGI,SK-OV-3 ovarian,> 100 µM
same,TGI,SR leukemia,> 100 µM
same,TGI,SW-620 colon,> 100 µM
Cc1cc(C)c(-c2noc(-c3ccc(Cl)cc3)c2C2=NCCCN2)c(C)c1,TGI,ACHN renal,> 100 µM
same,TGI,HOP-62 NSCLC,85.8 µM
same,TGI,NCI-H522 lung,71.3 µM
same,TGI,OVCAR-3 ovarian,> 100 µM
same,TGI,OVCAR-5 ovarian,86 µM
same,TGI,SK-OV-3 ovarian,> 100 µM
same,TGI,SN12C renal,82.6 µM
same,TGI,SR leukemia,> 100 µM
same,TGI,SW-620 colon,> 100 µM
COc1c(-c2ccccc2)nc2ccc(Oc3ccccc3)nn12,TGI,ACHN renal,> 100 µM
same,TGI,HOP-62 NSCLC,> 100 µM
same,TGI,NCI-H522 lung,> 100 µM
same,TGI,OVCAR-3 ovarian,> 100 µM
same,TGI,OVCAR-5 ovarian,> 100 µM
same,TGI,SK-OV-3 ovarian,> 100 µM
same,TGI,SN12C renal,> 100 µM
same,TGI,SR leukemia,> 100 µM
same,TGI,SW-620 colon,> 100 µM
COC1OC2COC(C)(C)OC2C(OC(C)=O)C1NC(=O)N(CCCl)N=O (stereo not given),TGI,ACHN renal,> 100 µM
same,TGI,HOP-62 NSCLC,> 100 µM
same,TGI,NCI-H522 lung,67.1 µM
same,TGI,OVCAR-3 ovarian,> 100 µM
same,TGI,OVCAR-5 ovarian,> 100 µM
same,TGI,SK-OV-3 ovarian,> 100 µM
same,TGI,SN12C renal,> 100 µM
same,TGI,SW-620 colon,> 100 µM
C=CCC(N[C@H](CO)c1ccccc1)c1cn(Cc2ccccc2Cl)c(=O)n(Cc2ccccc2Cl)c1=O (stereo not given in full),GI50,ACHN renal,4.78 µM
same,TGI,ACHN renal,39 µM
same,GI50,HOP-62 NSCLC,12 µM
same,TGI,HOP-62 NSCLC,29.9 µM
same,GI50,NCI-H522 lung,14.3 µM
same,TGI,NCI-H522 lung,89.9 µM
same,GI50,OVCAR-3 ovarian,8.8 µM
same,TGI,OVCAR-3 ovarian,43.8 µM
same,GI50,OVCAR-5 ovarian,25.6 µM
same,TGI,OVCAR-5 ovarian,> 100 µM
same,GI50,PC-3 prostate,4.03 µM
same,TGI,PC-3 prostate,26.7 µM
same,GI50,SK-OV-3 ovarian,63.8 µM
same,TGI,SK-OV-3 ovarian,> 100 µM
same,GI50,SN12C renal,14.6 µM
same,TGI,SN12C renal,40.9 µM
same,GI50,SW-620 colon,24.3 µM
same,TGI,SW-620 colon,> 100 µM

# Source: PubChem BioAssay (NCI)
